This note sets out measurements from US8614205B2, “Glutamate receptor modulators and therapeutic agents” (priority 2009, dated 2013).

The target of one assay is T1, mGluR1 (Homo sapiens, UniProt Q13255).
T1 construct: expression induced with doxycycline
The experiment in a line: aequorin calcium assay, negative allosteric modulation of mGluR1. The format is cell-based. As to conditions: for mGluR1/mGluR5 Ratio: EC50 for mGluR1 divided by EC50 for mGluR5; for EC50: aequorin assay, agonist at EC80, 10000 = no activity observed at 10,000 nM. Here is the method:
(§1) The ability of test compound to ameliorate the efflux of calcium cations (Ca^++) in the presence of agonist (glutamate or quisqualate) is measured by detection of light emitted by the luminescent protein aequorin triggered by binding of Ca^++. Aequorin is a photoprotein isolated from luminescent jellyfish (like various Aequorea species e.g. Aequorea victoria). Aequorin is composed of two distinct units, the apoprotein apoaequorin, with an approximate molecular weight of 22 kDa, and the prosthetic group, coelenterazine, responsible for emission of light. In the presence of molecular oxygen the two components of aequorin assemble spontaneously, forming the functional protein. Four EF-hand type regions have been identified in the structure of Aequorin and at least 3 of them function as binding sites for Ca+2 ions: Ca+2 binding to these EF hands triggers a conformational change of the protein, that leads it to oxidize its prosthetic group, coelenterazine, into excited coelenteramide and CO2. As the excited coelenteramide relaxes to the ground state, blue light (wavelength=469 nm) is emitted and can be measured by a luminometer. Negative allosteric modulator activity of test compound is expressed as a percentage of the stimulation of reference agonist (glutamate) activity at its EC80 concentration. Assay of Compounds was performed at Euroscreen SA, Gosselies, Belgium.
(§2) Cells stably transfected with mGlu1 or mGlu5 were grown 18 hours prior to the test in culture medium containing 600 ng/ml doxycycline, then were detached by gentle flushing with PBS-EDTA, recovered by centrifugation and resuspended in “assay buffer” (HBSS, 2.1 mM CaCl2, 3 μg/ml GPT (Glutamate-Pyruvate transaminase), 4 mM MEM Sodium Pyruvate, 0.1% BSA, protease free). Cells were incubated at room temperature for at least 4 h with coelenterazine-h. Dose response curves were performed using mGluR1 cells with the orthosteric agonist glutamate and negative allosteric modulator JNJ16259685. Dose response curves were performed using mGluR5 cells with the orthosteric agonist glutamate and negative allosteric modulator MPEP. For agonist testing, 30 μl of cell suspension were mixed with 30 μl of test compound or reference agonist in a 384-well plate. The resulting emission of light was recorded using the Hamamatsu Functional Drug Screening System 6000 (FDSS 6000). For negative allosteric modulator testing, 60 μl of the resulting cell suspension containing the test compound was mixed with 30 μl of the reference agonist at EC80 following an incubation of 3 min after the first injection. The resulting emission of light was recorded using FDSS 6000. […] Plates also contained the reference agonist at a concentration equivalent to the EC80 obtained during the test validation. Negative allosteric modulator activity of test compound was expressed as a percentage of the stimulation of reference agonist activity at its EC80 concentration.

The target in the next assay is T2, mGluR5 (Homo sapiens, UniProt P41594).
T2 construct: expression induced with doxycycline
T2 sequence (P41594 21-1212): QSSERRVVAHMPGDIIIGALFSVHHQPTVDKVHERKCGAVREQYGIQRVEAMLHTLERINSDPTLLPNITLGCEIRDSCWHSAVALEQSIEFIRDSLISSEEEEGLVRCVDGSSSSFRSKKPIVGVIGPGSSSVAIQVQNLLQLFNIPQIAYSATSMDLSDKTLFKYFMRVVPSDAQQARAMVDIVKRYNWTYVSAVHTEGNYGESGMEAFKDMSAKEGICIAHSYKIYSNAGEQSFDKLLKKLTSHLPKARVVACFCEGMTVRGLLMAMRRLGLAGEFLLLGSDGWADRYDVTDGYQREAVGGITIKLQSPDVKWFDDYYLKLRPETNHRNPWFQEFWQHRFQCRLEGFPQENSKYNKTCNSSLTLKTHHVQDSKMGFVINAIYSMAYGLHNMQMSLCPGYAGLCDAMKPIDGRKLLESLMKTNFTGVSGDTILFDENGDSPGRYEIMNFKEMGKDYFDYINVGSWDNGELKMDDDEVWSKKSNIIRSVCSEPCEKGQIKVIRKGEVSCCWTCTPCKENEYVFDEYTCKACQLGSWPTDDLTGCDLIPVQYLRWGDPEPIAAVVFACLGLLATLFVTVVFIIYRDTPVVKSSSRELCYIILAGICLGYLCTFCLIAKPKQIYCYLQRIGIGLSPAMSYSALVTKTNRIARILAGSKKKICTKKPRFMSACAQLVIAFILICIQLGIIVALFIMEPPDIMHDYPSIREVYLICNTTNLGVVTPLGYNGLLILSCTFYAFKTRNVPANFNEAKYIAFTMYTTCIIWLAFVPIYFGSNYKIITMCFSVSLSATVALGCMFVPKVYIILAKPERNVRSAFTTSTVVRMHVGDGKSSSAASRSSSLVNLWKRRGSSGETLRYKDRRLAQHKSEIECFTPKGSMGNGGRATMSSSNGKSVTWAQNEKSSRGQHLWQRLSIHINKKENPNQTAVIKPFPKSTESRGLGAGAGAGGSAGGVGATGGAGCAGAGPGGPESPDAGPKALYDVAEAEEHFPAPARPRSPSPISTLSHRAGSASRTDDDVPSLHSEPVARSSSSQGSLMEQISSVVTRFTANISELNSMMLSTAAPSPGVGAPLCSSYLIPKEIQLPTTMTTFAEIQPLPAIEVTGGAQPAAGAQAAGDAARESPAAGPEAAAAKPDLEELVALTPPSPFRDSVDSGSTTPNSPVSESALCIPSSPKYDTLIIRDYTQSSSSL
The experiment in a line: aequorin calcium assay, negative allosteric modulation of mGluR5. The format is cell-based. The following applies: aequorin assay, agonist at EC80; 10000 = no activity observed at 10,000 nM; read-out: mGluR5 EC50. Here is the method:
as §1, §2

T1 sequence (Q13255 19-1194): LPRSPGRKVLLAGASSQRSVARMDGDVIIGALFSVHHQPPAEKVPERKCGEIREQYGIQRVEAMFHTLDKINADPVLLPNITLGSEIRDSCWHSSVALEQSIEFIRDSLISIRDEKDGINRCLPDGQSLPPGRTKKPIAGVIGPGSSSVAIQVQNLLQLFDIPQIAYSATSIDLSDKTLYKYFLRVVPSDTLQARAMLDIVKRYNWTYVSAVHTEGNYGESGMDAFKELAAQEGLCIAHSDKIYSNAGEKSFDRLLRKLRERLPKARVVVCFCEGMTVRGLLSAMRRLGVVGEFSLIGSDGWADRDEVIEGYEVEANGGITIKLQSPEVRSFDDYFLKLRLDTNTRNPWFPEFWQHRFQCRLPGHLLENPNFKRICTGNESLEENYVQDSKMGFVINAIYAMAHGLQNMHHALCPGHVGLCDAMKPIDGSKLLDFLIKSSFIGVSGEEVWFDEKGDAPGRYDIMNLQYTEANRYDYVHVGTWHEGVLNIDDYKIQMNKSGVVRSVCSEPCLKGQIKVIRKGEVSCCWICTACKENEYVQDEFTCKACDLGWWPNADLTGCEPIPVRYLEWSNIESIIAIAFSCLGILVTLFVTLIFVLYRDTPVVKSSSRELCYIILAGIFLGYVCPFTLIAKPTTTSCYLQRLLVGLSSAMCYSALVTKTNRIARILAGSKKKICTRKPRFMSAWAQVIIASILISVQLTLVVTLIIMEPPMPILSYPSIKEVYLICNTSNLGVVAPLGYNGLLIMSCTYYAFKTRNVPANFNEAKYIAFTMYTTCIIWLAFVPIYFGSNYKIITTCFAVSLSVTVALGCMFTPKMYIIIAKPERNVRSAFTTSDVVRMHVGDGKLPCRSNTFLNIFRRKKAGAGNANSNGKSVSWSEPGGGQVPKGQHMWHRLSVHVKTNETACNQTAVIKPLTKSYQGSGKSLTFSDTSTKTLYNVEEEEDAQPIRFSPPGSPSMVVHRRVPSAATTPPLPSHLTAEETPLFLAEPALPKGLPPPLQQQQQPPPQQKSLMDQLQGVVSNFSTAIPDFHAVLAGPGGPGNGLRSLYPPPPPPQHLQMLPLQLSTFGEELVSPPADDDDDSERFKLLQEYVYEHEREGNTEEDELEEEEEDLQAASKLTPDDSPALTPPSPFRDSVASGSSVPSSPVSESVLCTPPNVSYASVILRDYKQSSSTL

Regarding `O=C(Nc1ccc([N+](=O)[O-])cc1Cl)c1cc(Cl)cc(Cl)c1O` [Compound 2, 3,5-dichoro-N-(2-chloro-4-nitrophenyl)-2 hydroxybenzamide], at mGluR1, the “mGluR1/mGluR5 Ratio” value was 2.36 and the concentration giving a half-maximal response (EC50) was 1580 nM. In addition, the EC50 at mGluR5 stood at 669 nM.
As for `O=C(Nc1ccc([N+](=O)[O-])cc1Cl)c1ccccc1O` [Compound 4, N-(2-chloro-4-nitrophenyl)-2 hydroxybenzamide], at mGluR1, the “mGluR1/mGluR5 Ratio” value came to 1.73 and the 50% effective concentration (EC50) came out at 290 nM. Also, the EC50 on mGluR5 came out at 168 nM.
`O=C(Nc1ccc(Cl)c(Cl)c1)c1cc(Cl)ccc1O` [Compound 5]: at mGluR1, the “mGluR1/mGluR5 Ratio” value is recorded as 1.99 and the EC50 worked out at 179 nM. In addition, the EC50 on mGluR5 is 90 nM.
In the same order, the values of `O=C(Nc1ccccc1)c1cc(Cl)ccc1O` [Compound 6] are 4.16, 3040 nM and 731 nM.
For `Cc1cccc(NC(=O)c2cc(Cl)ccc2O)c1` [Compound 8], at mGluR1, the “mGluR1/mGluR5 Ratio” value came out at 28.40 and the concentration giving a half-maximal response (EC50) came out at 2390 nM. Besides, at mGluR5, the concentration for a half-maximal effect (EC50) came to 84 nM.
In the case of `O=C(Nc1cccc(Br)c1)c1cc(Cl)ccc1O` [Compound 9], at mGluR1, the “mGluR1/mGluR5 Ratio” value is listed as 2.77 and the EC50 came out at 459 nM. In addition, the EC50 on mGluR5 worked out at 166 nM.
As for `C#Cc1cccc(NC(=O)c2cc(Cl)ccc2O)c1` [Compound 10], at mGluR1, the “mGluR1/mGluR5 Ratio” value worked out at 7.64 and the concentration for a half-maximal effect (EC50) worked out at 932 nM. Further, the 50% effective concentration (EC50) at mGluR5 was found to be 122 nM.
The like results for `C=Cc1cccc(NC(=O)c2cc(Cl)ccc2O)c1` [Compound 11, 5-Chloro-2-hydroxy-N-(3-vinylphenyl)benzamide] were, in that order, 7.73, 371 nM and 48 nM.
Regarding `CCc1cccc(NC(=O)c2cc(Cl)ccc2O)c1` [Compound 12, 5-Chloro-2-hydroxy-N-(3-ethylphenyl)benzamide], on mGluR1, the “mGluR1/mGluR5 Ratio” value worked out at 6.36 and the EC50 was determined as 859 nM. At mGluR5, the EC50 is 135 nM.
The like results for `O=C(Nc1cccc(C(F)(F)F)c1)c1cc(Cl)ccc1O` [Compound 13] were, in that order, 2.15, 273 nM and 127 nM.
In the same order, the values of `O=C(Nc1cccc(Cl)c1)c1cc(Cl)ccc1O` [Compound 14] are 4.15, 523 nM and 126 nM.
`N#Cc1cccc(NC(=O)c2cc(Cl)ccc2O)c1` [Compound 16, 5-Chloro-N-(3-cyanophenyl)-2-hydroxybenzamide]: the “mGluR1/mGluR5 Ratio” value at mGluR1 worked out at 42.55. The figures for the EC50 on mGluR1 and on mGluR5 were greater than 10000 nM and 235 nM, respectively.
In the same order, the values of `O=C(Nc1cccc(F)c1)c1cc(Cl)ccc1O` [Compound 17] are 4.33, 598 nM and 138 nM.
In the same order, the values of `CC(C)(C)c1cccc(NC(=O)c2cc(Cl)ccc2O)c1` [Compound 18, 5-Chloro-N-(3-tert-butylphenyl)-2-hydroxybenzamide] are 1.40, 334 nM and 238 nM.
In the same order, the values of `Cc1cc(C)cc(NC(=O)c2cc(Cl)ccc2O)c1` [Compound 19] are 9.39, 1140 nM and 122 nM.
As for `O=C(Nc1cc(C(F)(F)F)cc(C(F)(F)F)c1)c1cc(Cl)ccc1O` [Compound 20], the “mGluR1/mGluR5 Ratio” value at mGluR1 was 1.22. Also, the values for the EC50 on mGluR1 and at mGluR5 were 111 nM and 91 nM, respectively.
Consider `CN(C)C(=O)Oc1ccc(Cl)cc1C(=O)Nc1ccc([N+](=O)[O-])cc1Cl` [Compound 23, 4-chloro-2-(2-chloro-4-nitrophenylcarbamoyl)phenyl dimethyl carbamate], for which the EC50 on mGluR1 and at mGluR5 was greater than 10000 nM each time.
For `COC(=O)[C@@H]1CCCN1C(=O)Oc1ccc(Cl)cc1C(=O)Nc1ccc([N+](=O)[O-])cc1Cl` [Compound 25], the concentration for a half-maximal effect (EC50) on mGluR1 and on mGluR5 was greater than 10000 nM in each case.
Take `CC(C)(C)OC(=O)[C@@H]1CCCN1C(=O)Oc1ccc(Cl)cc1C(=O)Nc1ccc([N+](=O)[O-])cc1Cl` [Compound 26]: the concentration for a half-maximal effect (EC50) on mGluR1 and at mGluR5 was greater than 10000 nM in each case.
Consider `O=C(Nc1ccc([N+](=O)[O-])cc1Cl)c1cc(Cl)ccc1OC(=O)N1CCC[C@H]1C(=O)O` [Compound 27], for which the concentration giving a half-maximal response (EC50) on mGluR1 and at mGluR5 was greater than 10000 nM in each case.
